# Source: patent US11583506B1, “Cannabinoids for use in suppressing cancer stem cells” (VIVACELL BIOTECHNOLOGY ESPAÑA S.L.U., priority 2020, dated 2023)
# Entries after “also recorded” stand apart in the source; their conditions may differ.
# Tests used:
# Format in all cases: cell-based, human
# [1] = tested on: Notch1; assay: Notch1 degradation with proteasome inhibitor MG132 in HCT 116 cells; details: 24 hours, 10 μM CBD and/or 10 μM MG-132
# Experimental: (§1) To gain insight into the CBD effect on Notch1 pathway, a deep study using the human colorectal carcinoma HCT 116 cell line (ATCC No. CCL-247) was performed to analyse Notch1 levels. […] Moreover, the Hes5 protein level, a Notch signalling-related protein, was also analysed by western blot following the methodology explained above and using a specific primary antibody (Human anti-Hes5. 1:1000 dilution. Ref. #ab25374, Abcam. Cambridge, UK). […] To further clarify the CBD mechanism of causing a reduced Notch1 expression, HCT 116 cells were incubated with the proteasome inhibitor MG132 and/or with CBD.
# [2] = tested on: Hes5; assay: Hes5 protein level in HCT 116 cells by western blot; details: 10 μM, 6, 16 and 24 hours
# Experimental: In cancer stem cells Notch1 signalling pathway is abnormally activated (Venkatesh V et al. Stem Cell Investig. 2018 Mar. 12; 5:5. doi: 10.21037/sci.2018.02.02. PMID: 29682512). For this reason, to further analyse the anti-proliferative CBD effect on colonospheres formation, Notch1 expression was investigated by western blot analysis. Briefly, after treatments, the colonospheres were washed with PBS1X and whole-cell proteins were extracted in 50 μL of lysis buffer (50 mM Tris-HCl pH 7.5, 150 mM NaCl, 10% glycerol and 1% NP-40) supplemented with 10 mM NaF, 1 mM Na3VO4, 10 μg/mL leupeptine, 1 μg/mL pepstatin and aprotinin, and 1 μL/mL phenylmethylsulfonyl fluoride saturated. Protein concentration of the whole-cell lysates was quantified by absorbance at 595 nm using Bradford reagent compared to a bovine serum albumin standard curve. Then, forty micrograms of protein were boiled at 95° C. in Laemmli buffer and electrophoresed in 10% SDS/PAGE gels. […] After washing membranes, horseradish peroxidase-conjugated secondary antibody was added and the protein bands on the membranes were detected with ECL reagent (BioRad. Hercules, Calif., USA) by chemiluminescence system (GE Healthcare Europe GmbH. Munich, Germany). […]
# [3] = tested on: Notch1; assay: Notch1 expression in colonospheres by western blot; details: colonospheres after 7 days of treatment, 1 and 5 μM, western blot normalized to Actin
# Experimental: In cancer stem cells Notch1 signalling pathway is abnormally activated (Venkatesh V et al. Stem Cell Investig. 2018 Mar. 12; 5:5. doi: 10.21037/sci.2018.02.02. PMID: 29682512). For this reason, to further analyse the anti-proliferative CBD effect on colonospheres formation, Notch1 expression was investigated by western blot analysis. Briefly, after treatments, the colonospheres were washed with PBS1X and whole-cell proteins were extracted in 50 μL of lysis buffer (50 mM Tris-HCl pH 7.5, 150 mM NaCl, 10% glycerol and 1% NP-40) supplemented with 10 mM NaF, 1 mM Na3VO4, 10 μg/mL leupeptine, 1 μg/mL pepstatin and aprotinin, and 1 μL/mL phenylmethylsulfonyl fluoride saturated. Protein concentration of the whole-cell lysates was quantified by absorbance at 595 nm using Bradford reagent compared to a bovine serum albumin standard curve. Then, forty micrograms of protein were boiled at 95° C. in Laemmli buffer and electrophoresed in 10% SDS/PAGE gels. […] After washing membranes, horseradish peroxidase-conjugated secondary antibody was added and the protein bands on the membranes were detected with ECL reagent (BioRad. Hercules, Calif., USA) by chemiluminescence system (GE Healthcare Europe GmbH. Munich, Germany).
# The densitometry analysis was performed using ImageJ software, and the quantified band intensities were normalized to Actin. […]
# [4] = tested on: Notch1; assay: Notch1 levels in HCT 116 cells by western blot; details: for Notch1 levels, panel of natural cannabinoids / Notch1 expression levels, concentration dependence: HCT 116 cells; for Notch1 levels, panel of natural cannabinoids: 24 hours, 10 μM; for Notch1 expression levels, concentration dependence: 24 hours, 1, 2.5, 5 and 10 μM
# Experimental: In cancer stem cells Notch1 signalling pathway is abnormally activated (Venkatesh V et al. Stem Cell Investig. 2018 Mar. 12; 5:5. doi: 10.21037/sci.2018.02.02. PMID: 29682512). For this reason, to further analyse the anti-proliferative CBD effect on colonospheres formation, Notch1 expression was investigated by western blot analysis. Briefly, after treatments, the colonospheres were washed with PBS1X and whole-cell proteins were extracted in 50 μL of lysis buffer (50 mM Tris-HCl pH 7.5, 150 mM NaCl, 10% glycerol and 1% NP-40) supplemented with 10 mM NaF, 1 mM Na3VO4, 10 μg/mL leupeptine, 1 μg/mL pepstatin and aprotinin, and 1 μL/mL phenylmethylsulfonyl fluoride saturated. Protein concentration of the whole-cell lysates was quantified by absorbance at 595 nm using Bradford reagent compared to a bovine serum albumin standard curve. Then, forty micrograms of protein were boiled at 95° C. in Laemmli buffer and electrophoresed in 10% SDS/PAGE gels. Separated proteins were transferred to polyvinylidene difluoride (PVDF) membranes (20V for 30 min) and blocked in TBSIX solution containing 0.1% Tween 20 and 5% non-fat dry milk for 1 hour at room temperature. Immunodetection of specific proteins was carried out by incubation with primary antibody against human Notch1 (1:1000 dilution. Ref. #ab52627, Abcam. Cambridge, UK) and β-actin (1:10.000 dilution. Ref. #A5316, Sigma-Aldrich. St. Louis, Mo., USA) overnight at 4° C. After washing membranes, horseradish peroxidase-conjugated secondary antibody was added and the protein bands on the membranes were detected with ECL reagent (BioRad. Hercules, Calif., USA) by chemiluminescence system (GE Healthcare Europe GmbH. Munich, Germany).
# The densitometry analysis was performed using ImageJ software, and the quantified band intensities were normalized to Actin. […] Thus, it can be concluded that the reduction of Notch1 levels is critical to inhibit the colonospheres proliferation.
# as §1
# A panel of natural cannabinoids CBDA, CBDV, CBC, CBCA, CBCV, CBG, CBGA, CBGV, CBGVA, CBN, THC and THCA were evaluated in its capacity to reduce Notch1 levels in human colorectal carcinoma HCT 116 cell line. CBD was purchase from Endoca BV (Netherlands). CBDA, CBDV, CBCA, CBG, CBGA, THC and […] were purchased from Phytoplant Research S.L (Cordoba, Spain). CBC, CBCV, CBGV, CBGVA and CBN were provided by the laboratory of the Professor Giovanni Appendino from the University of Piemonte Orientale (Novara, Italy).
# [5] = tested on: HCT 116 cells; assay: tumorospheres (colonospheres) formation assay; details: 7 days of treatment, 1, 2.5, 5 and 10 μM, vs vehicle (DMSO)
# Excerpt: Cancer stem cells (CSC) cultured 3-dimentionally in a serum-free medium supplemented with growth factors are able to form floating spheroids known as tumorospheres (Reynolds B A et al. Dev Biol. 1996; 175(1):1-13. doi:10.1006/dbio.1996.0090; Singh S K et al. Cancer Res. 2003; 63(18):5821-8. PMID: 14522905). These cancer cells-derived spheroids have been proven to display CSCs characteristics and recapitulate in vitro the in vivo conditions of cancer growth becoming an ideal model to evaluate anti-CSC drugs (Dieter S M et al. Cell Stem Cell. 2011; 9(4):357-65. doi: 10.1016/j.stem.2011.08.010. PMID: 21982235; Lee C H et al. Oncotarget. 2016; 7(2):1215-26. doi: 10.18632/oncotarget.6261. PMID: 26527320).
# To study the CBD effect on colonospheres proliferation, a tumorospheres formation assay was performed. Briefly, human colorectal carcinoma HCT 116 cells (ATCC No. CCL-247) were trypsinized, quantified and seeded at clonal density (5 cell/μL) in ultra-low attachment surface 96-well plates (Corning-Costar. Coming, N.Y., USA) with serum free Dulbecco's Modified Eagle's Medium (DMEM)/Nutrient Mixture F-12 Ham (Sigma-Aldrich. St. Louis, Mo., USA) supplemented with 1X B-27 (Invitrogen, Carlsbad, Calif., USA), 10 ng/mL basic fibroblast growth factor (bFGF; PeproTech. London, UK), 20 ng/mL epidermal growth factor (EGF; Santa Cruz Biotechnology, Heidelberg, Germany), 1% (v/v) methylcellulose (R&D Systems. Minneapolis, Minn., USA) to prevent cell aggregation and the corresponding dose of vehicle (DMSO) or CBD concentration (1, 2.5, 5 and 10 μM). Every 2-3 days freshly supplements were added and the number and size of colonospheres were analysed by optical microscopy 1 week after seeding.
# [6] = tested on: Notch1; assay: Notch1 expression in H1299 cancer cell line; details: H1299 (Lung)
# Experimental: (§2) The effect of CBGV on Notch1 expression levels was evaluated in a panel of cancer cell lines. Human colorectal carcinoma Hct116 (No. CCL-247), human colorectal adenocarcinoma HT-29 (No. HTB-38), human brain neuroblastoma SK—N—SH (No. HTB-11), human breast adenocarcinoma MDA-MB-231 (No. HTB-26), human prostate adenocarcinoma PC3 (No. CRL-1435), human prostate carcinoma DU-145 (No. HTB-81), human lung carcinoma A549 (No. CCL-185) and human lung carcinoma H1299 (No. CRL-5803) cell lines were obtained from the American Type Culture Collection (ATCC, USA).
# [7] = tested on: Notch1; assay: Notch1 expression in Hct116 cancer cell line; details: Hct116 (Colon)
# Experimental: as §2
# [8] = tested on: Notch1; assay: Notch1 expression in A549 cancer cell line; details: A549 (Lung)
# Experimental: as §2
# [9] = tested on: Notch1; assay: Notch1 expression in DU145 cancer cell line; details: DU145 (Prostate)
# Experimental: as §2
# [10] = tested on: Notch1; assay: Notch1 expression in HT-29 cancer cell line; details: HT-29 (Colon)
# Experimental: as §2
# [11] = tested on: Notch1; assay: Notch1 expression in SK-N-SH cancer cell line; details: SK-N-SH (Brain)
# Experimental: as §2
# [12] = tested on: Notch1; assay: Notch1 expression in PC3 cancer cell line; details: PC3 (Prostate)
# Experimental: as §2
# [13] = tested on: Notch1; assay: Notch1 expression in MDA-MB-231 cancer cell line; details: MDA-MB-231 (Breast)
# Experimental: as §2
SMILES,Notch1 degradation through the proteasome [1],Hes5 expression levels [2],Notch1 levels in colonospheres [3],"Notch1 protein levels in HCT 116 cells (dose and time dependence) ([4]; 1, 2.5, 5 and 10 μM for 24 hours, 10 μM at 6, 16 and 24 hours)","Notch1 levels, panel of natural cannabinoids [4]",colonospheres formation [5],"Notch1 expression levels, concentration dependence [4]",Inhibition of Notch1 expression in cancer cells [6],Inhibition of Notch1 expression in cancer cells [7],Inhibition of Notch1 expression in cancer cells [8],Inhibition of Notch1 expression in cancer cells [9],Inhibition of Notch1 expression in cancer cells [10],Inhibition of Notch1 expression in cancer cells [11],Inhibition of Notch1 expression in cancer cells [12],Inhibition of Notch1 expression in cancer cells [13]
"C=C(C)[C@@H]1CCC(C)=C[C@H]1c1c(O)cc(CCCCC)cc1O [CBD, cannabidiol]",induces Notch1 degradation by the proteasomal degradation machinery; also recorded: induces Notch1 degradation through the proteasome,clearly reduces Hes5 expression levels in HCT 116 cells in a time-dependent manner; also recorded: reduces the expression of Hes5,clearly diminished in a dose-dependent manner; also recorded: reduces Notch1 expression levels in colonospheres,reduces Notch1 protein levels in HCT 166 cells in a dose- and time-dependent manner; also recorded: reduces Notch1 expression levels in colonospheres and HCT 116 cells,clearly diminished Notch1 levels; also recorded: reduce Notch1 expression levels,significantly reduces the colonospheres formation in a clear dose-dependent manner,,,,,,,,,
"C=C(C)[C@@H]1CCC(C)=C[C@H]1c1c(O)cc(CCC)cc1O [CBDV, cannabidivarin]",,,,,clearly diminished Notch1 levels; also recorded: reduce Notch1 expression levels,potent dose-dependent anti-proliferative effect of colonospheres formation; also recorded: inhibit colonospheres formation,reduce Notch1 expression levels in a concentration-dependent manner,,,,,,,,
"CCCc1cc(O)c(C/C=C(\C)CCC=C(C)C)c(O)c1 [CBGV, cannabigerovarin]",,,,,clearly diminished Notch1 levels; also recorded: reduce Notch1 expression levels,potent dose-dependent anti-proliferative effect of colonospheres formation; also recorded: inhibit colonospheres formation,reduce Notch1 expression levels in a concentration-dependent manner,Yes,Yes,Yes,Yes,Yes,Yes,Yes,Yes
